Test results taken from ChEMBL document CHEMBL5108024, “New C-6 functionalized quinoline NorA inhibitors strongly synergize with ciprofloxacin against planktonic and biofilm growing resistant Staphylococcus aureus strains” (Eur J Med Chem, 2022).
≈ marks a conversion by molar mass, not a printed value. Where “and” joins values, the source holds several entries; their conditions need not be identical. Equal values may be shown once.

Key:
Staphylococcus aureus [1] = test: Antibacterial activity against ciprofloxacin-resistant Staphylococcus aureus 1199B overexpressing norA and harboring A116E grlA mutant assessed as inhibition of bacterial growth by broth microdilution method; format: functional
Staphylococcus aureus [2] = test: Antibacterial activity against ciprofloxacin-susceptible wild type Staphylococcus aureus 1199 assessed as inhibition of bacterial growth by broth microdilution method; format: functional
Staphylococcus aureus [3] = test: Antibacterial activity against Staphylococcus aureus K2378 harbouring norA promoting and coding region assessed as inhibition of bacterial growth by broth microdilution method; format: functional
Staphylococcus aureus [4] = test: Antibacterial activity against norA deleted Staphylococcus aureus K1902 assessed as inhibition of bacterial growth by broth microdilution method; format: functional
Staphylococcus aureus [5] = test: Antibiofilm activity against Staphylococcus aureus 1199B overexpressing norA and harboring A116E grlA mutant assessed as biofilm eradication incubated for 24 hrs by Calgary biofilm device assay; format: functional
Staphylococcus aureus [6] = test: Antibiofilm activity against wild type Staphylococcus aureus 1199 assessed as biofilm eradication incubated for 24 hrs by Calgary biofilm device assay; format: functional
Staphylococcus aureus [7] = test: Antibiofilm activity against norA deleted Staphylococcus aureus K1902 assessed as biofilm eradication incubated for 24 hrs by Calgary biofilm device assay; format: functional
Staphylococcus aureus [8] = test: (§1) Synergistic bactericidal activity against Staphylococcus aureus 1199B overexpressing norA and harboring A116E grlA mutant assessed as reduction in bacterial count by measuring log reduction in colony forming count per ml at 6.25 ug/ml incubated for 4 hrs in presence of ciprofloxacin at 0.25 to 1 times MIC by time kill assay; format: functional; conditions: dose 6.25 µg/ml
[9] = Cytotoxicity against human THP-1 cells assessed as cell viability at 3.13 ug/ml incubated for 24 hrs by MTT assay relative to control; format: toxicity, cell-based; conditions: at 3.13 µg/mL, read-out: Activity
[10] = Cytotoxicity against human THP-1 cells assessed as cell viability at 12.5 ug/ml incubated for 24 hrs by MTT assay relative to control; format: toxicity, cell-based; conditions: at 12.5 µg/mL, read-out: Activity
Staphylococcus aureus [11] = test: Inhibition of EtBr efflux in ciprofloxacin-resistant Staphylococcus aureus 1199B overexpressing norA and harboring A116E grlA mutant assessed as reduction in fluorescence intensity at 50 uM measured for 5 mins by microplate reader analysis relative to control; format: functional
Staphylococcus aureus [12] = test: Inhibition of EtBr efflux in ciprofloxacin-resistant Staphylococcus aureus 1199B overexpressing norA and harboring A116E grlA mutant assessed as reduction in fluorescence intensity at 10 uM measured for 5 mins by microplate reader analysis relative to control; format: functional
Staphylococcus aureus [13] = test: Synergistic antibacterial activity against ciprofloxacin-resistant Staphylococcus aureus 1199B overexpressing norA and harboring A116E grlA mutant assessed as fold reduction in ciprofloxacin MIC at 6.25 uM by broth microdilution method; format: functional
Staphylococcus aureus [14] = test: Synergistic antibacterial activity against Staphylococcus aureus 1199B overexpressing norA and harboring A116E grlA mutant assessed as eight fold minimum potentiating concentration incubated in presence of ciprofloxacin by checkerboard assay; format: functional
Staphylococcus aureus [15] = test: Synergistic antibacterial activity against Staphylococcus aureus K2378 overexpressing norA assessed as fold reduction in ciprofloxacin MIC at 0.2 to 12.5 ug/ml by checkerboard assay; format: functional; conditions: dose 0.2-12.5 µg/ml
[16] = Cytotoxicity against human A549 cells assessed as cell viability at 12.5 ug/ml incubated for 24 hrs by MTT assay relative to control; format: toxicity, cell-based; conditions: at 12.5 µg/mL, read-out: Activity
[17] = Cytotoxicity against human A549 cells assessed as cell viability at 3.13 ug/ml incubated for 24 hrs by MTT assay relative to control; format: toxicity, cell-based; conditions: at 3.13 µg/mL, read-out: Activity
[18] = Cytotoxicity against human THP-1 cells assessed as cell viability incubated for 24 hrs by MTT assay; format: toxicity, cell-based
Staphylococcus aureus [19] = test: Synergistic antibiofilm activity against Staphylococcus aureus 1199B overexpressing norA and harboring A116E grlA mutant assessed as biofilm eradication by measuring ciprofloxacin MBEC at 3.13 ug/ml incubated for 24 hrs by Calgary biofilm device assay; format: functional; conditions: dose 3.13 µg/ml
Staphylococcus aureus [20] = test: Synergistic antibiofilm activity against wild type Staphylococcus aureus 1199 assessed as biofilm eradication by measuring ciprofloxacin MBEC at 3.13 ug/ml incubated for 24 hrs by Calgary biofilm device assay; format: functional; conditions: dose 3.13 µg/ml
Staphylococcus aureus [21] = test: Synergistic antibiofilm activity against norA deleted Staphylococcus aureus K1902 assessed as biofilm eradication by measuring ciprofloxacin MBEC at 3.13 ug/ml incubated for 24 hrs by Calgary biofilm device assay; format: functional; conditions: dose 3.13 µg/ml
Staphylococcus aureus [22] = test: Synergistic antibiofilm activity against Staphylococcus aureus 1199B overexpressing norA and harboring A116E grlA mutant assessed as biofilm eradication by measuring fold reduction in ciprofloxacin MBEC at 3.13 ug/ml incubated for 24 hrs by Calgary biofilm device assay; format: functional; conditions: dose 3.13 µg/ml
Staphylococcus aureus [23] = test: Synergistic antibiofilm activity against wild type Staphylococcus aureus 1199 assessed as biofilm eradication by measuring fold reduction in ciprofloxacin MBEC at 3.13 ug/ml incubated for 24 hrs by Calgary biofilm device assay; format: functional; conditions: dose 3.13 µg/ml
Staphylococcus aureus [24] = test: as §1, with “6” for “4”; format: functional; conditions: dose 6.25 µg/ml
Staphylococcus aureus [25] = test: Potentiation of ciprofloxacin-induced antibacterial activity against Staphylococcus aureus 1199B overexpressing norA and harboring A116E grlA mutant assessed as post-antibiotic effect by measuring log reduction in colony forming unit per ml at 6.25 ug/ml preincubated for 1 hr followed by compound washout and measured after 5 hrs; format: functional; conditions: dose 6.25 µg/ml
Staphylococcus aureus [26] = test: Potentiation of ciprofloxacin-induced antibacterial activity against Staphylococcus aureus 1199B overexpressing norA and harboring A116E grlA mutant assessed as time for post-antibiotic effect at 6.25 ug/ml preincubated for 1 hr followed by compound washout and measured after 5 hrs; format: functional; conditions: dose 6.25 µg/ml
Staphylococcus aureus [27] = test: Synergistic antibacterial activity against Staphylococcus aureus 1199B overexpressing norA and harboring A116E grlA mutant assessed as four fold minimum potentiating concentration incubated in presence of ciprofloxacin by checkerboard assay; format: functional
[28] = Selectivity index, ratio of CC50 for cytotoxicity against human THP-1 cells to MPC for synergistic antibacterial activity against Staphylococcus aureus 1199B overexpressing norA and harboring A116E grlA mutant assessed as four fold minimum potentiating concentration; format: toxicity, cell-based

SMILES | MIC (Staphylococcus aureus [1]) | MIC (Staphylococcus aureus [2]) [mg/L] | MIC (Staphylococcus aureus [3]) [mg/L] | MIC (Staphylococcus aureus [4]) [mg/L] | viability at 24 h, 3.13 ug/ml [9] [%] | viability at 24 h, 12.5 ug/ml [10] [%] | inhibition (Staphylococcus aureus [11]) [%] | inhibition (Staphylococcus aureus [12]) [%] | fold change (FC) (Staphylococcus aureus [13]) | fold change (FC) (Staphylococcus aureus [15]) | viability at 24 h, 12.5 ug/ml [16] [%] | viability at 24 h, 3.13 ug/ml [17] [%] | CC50 at 24 h [18] [mg/L] | MBEC (Staphylococcus aureus [19]) [µg/mL] | MBEC (Staphylococcus aureus [20]) [µg/mL] | other results
O=C(O)c1cn(C2CC2)c2cc(N3CCNCC3)c(F)cc2c1=O [CIPROFLOXACIN] | 10 mg/L (≈ 30.2 µM) | 0.08 (≈ 0.241 µM) | 0.63 (≈ 1.9 µM) | 0.15 (≈ 0.453 µM) | – | – | – | – | – | – | – | – | – | – | – | MBEC (Staphylococcus aureus [5]): 640 µg/mL; MBEC (Staphylococcus aureus [6]): 20 µg/mL; MBEC (Staphylococcus aureus [7]): 40 µg/mL
CCCOc1ccc(-c2cc(OCCN(CC)CC)c3cc(Oc4ccccc4)ccc3n2)cc1 | > 50 µg/mL and > 531 µM | > 50 | 25 (≈ 53.1 µM) | 25 (≈ 53.1 µM) | 77.3 | 8.2 | 80.9 | 76.1 | >=8 | 4 | 84.8 | 80.1 | > 3.13 | 1.25 | 0.07 | log(activity) (Staphylococcus aureus [8]): 3; MPC (Staphylococcus aureus [14]): 1.56 µg/mL; MBEC (Staphylococcus aureus [21]): 40 µg/mL; fold change (FC) (Staphylococcus aureus [22]): 512; fold change (FC) (Staphylococcus aureus [23]): 286; log(activity) (Staphylococcus aureus [24]): 2; log(activity) (Staphylococcus aureus [25]): 1; Time (Staphylococcus aureus [26]): 1.2 h
CCCOc1ccc(-c2cc(OCCN3CCCCCC3)c3cc(OCCC)ccc3n2)cc1 | > 50 µg/mL and > 540 µM | > 50 | > 50 | > 50 | 70.3 | 38.4 | 82.3 | 78.8 | 8 | 4 | 84.5 | 100 | > 3.13 | 2.5 | 0.07 | MPC (Staphylococcus aureus [27]): 0.2 µg/mL; selectivity ratio [28]: > 15
